Here are results for 27 compounds from patent publication US9718828B2 (MERCK SHARP & DOHME CORP., priority 2011, dated 2017).

Counter-ions that a name gives are not always drawn.

The first assay deals with Btk enzyme (His-Btk) (Homo sapiens (Human), UniProt Q06187). Put plainly: Btk enzyme activity, IMAP fluorescence polarization assay (Assay Method A).
Btk enzyme (His-Btk), sequence (Q06187 whole entry): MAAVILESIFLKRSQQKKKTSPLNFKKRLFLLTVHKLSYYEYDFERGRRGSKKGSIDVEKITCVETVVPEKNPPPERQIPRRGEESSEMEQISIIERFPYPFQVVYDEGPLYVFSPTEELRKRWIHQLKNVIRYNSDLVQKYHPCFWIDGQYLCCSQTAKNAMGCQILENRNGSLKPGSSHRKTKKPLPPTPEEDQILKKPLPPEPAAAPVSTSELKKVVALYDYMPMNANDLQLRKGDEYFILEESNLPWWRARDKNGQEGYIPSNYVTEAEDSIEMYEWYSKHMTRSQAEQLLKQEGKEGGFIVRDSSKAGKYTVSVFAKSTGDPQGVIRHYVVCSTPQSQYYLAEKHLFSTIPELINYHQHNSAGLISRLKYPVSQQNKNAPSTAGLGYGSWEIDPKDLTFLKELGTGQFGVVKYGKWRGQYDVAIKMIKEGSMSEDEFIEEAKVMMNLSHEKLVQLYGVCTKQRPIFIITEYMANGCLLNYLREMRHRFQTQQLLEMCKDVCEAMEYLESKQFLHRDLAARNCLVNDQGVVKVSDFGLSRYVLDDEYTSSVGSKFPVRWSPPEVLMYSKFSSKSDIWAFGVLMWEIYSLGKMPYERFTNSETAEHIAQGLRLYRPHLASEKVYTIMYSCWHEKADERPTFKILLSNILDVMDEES
Conditions: not given
Broadly, the EC50 is the concentration needed to bring the measured effect to its halfway point. For `Nc1nccn2c([C@@H]3CCN(C(=O)C4CCOC4)C3)nc(-c3ccc(C(=O)Nc4ccccn4)cc3)c12` (stereo partly drawn) [Example 128, (R)-4-(8-amino-3-(1-(tetrahydrofuran-3-carbonyl)pyrrolidin-3-yl)imidazo[1,5-a]pyrazin-1-yl)-N-(pyridin-2-yl)benzamide, TFA salt], the EC50 lay within 100 to 1000 nM. Take `Nc1nccn2c([C@@H]3CCCN(C(=O)C4CC4)C3)nc(-c3ccc(C(=O)Nc4cc(C(F)(F)F)ccn4)cc3)c12` [Example 103, (R)-4-(8-amino-3-(1-(cyclopropanecarbonyl)piperidin-3-yl)imidazo[1,5-a]pyrazin-1-(trifluoromethyl)pyridin-2-yl)benzamide]: the EC50 is below 10 nM. The compound `COCCC(=O)N1CCC[C@@H](c2nc(-c3ccc(C(=O)Nc4ccccn4)c(C)c3)c3c(N)nccn23)C1` [Example 286, (R)-4-(8-amino-3-(1-(3-methoxypropanoyl)piperidin-3-yl)imidazo[1,5-a]pyrazin-1-yl)-2-methyl-N-(pyridin-2-yl)benzamide, TFA salt] came in with an EC50 of 10 to 100 nM.

`CC(C)C(=O)N1CC[C@@H](c2nc(-c3ccc(C(=O)Nc4ccccn4)cc3)c3c(N)nccn23)C1` [Example 127, (R)-4-(8-amino-3-(1-isobutyrylpyrrolidin-3-yl)imidazo[1,5-a]pyrazin-1-yl)-N-(pyridin-2-yl)benzamide, TFA salt] yielded an EC50 of 100 to 1000 nM. As for `Nc1nccn2c([C@@H]3CCCN(C=O)C3)nc(-c3ccc(C(=O)Nc4ccccn4)cc3)c12` [Example 95, (R)-4-(8-amino-3-(1-formylpiperidin-3-yl)imidazo[1,5-a]pyrazin-1-yl)-N-(pyridin-2-yl)benzamide], the EC50 was 10 to 100 nM. The compound `CCc1cnc(NC(=O)c2ccc(-c3nc([C@H]4CC[C@H](OC(C)=O)CC4)n4ccnc(N)c34)cc2)s1` [Example 38, (trans)-4-(8-amino-1-(4-(5-ethylthiazol-2-ylcarbamoyl)phenyl)imidazo [1,5-a]pyrazin-3-yl)cyclohexyl acetate] yielded an EC50 of 10 to 100 nM.

For `CC1(C)CC(c2nc(-c3ccc(C(=O)Nc4ccccn4)cc3)c3c(N)nccn23)CCO1` (stereo not drawn) [Example 35, 4-(8-amino-3-(2,2-dimethyltetrahydro-2H-pyran-4-yl)imidazo[1,5-a]pyrazin-1-yl)-N-(pyridin-2-yl)benzamide], the EC50 lay in the range of 10 to 100 nM. Still for that read-out and setting: as for `COCCC(=O)N1C2CCC1C(c1nc(-c3ccc(C(=O)Nc4ccccn4)cc3)c3c(N)nccn13)C2` (stereo not drawn) [Example 148, 4-(8-amino-3-(7-(3-methoxypropanoyl)-7-azabicyclo[2.2.1]heptan-2-yl)imidazo[1,5-a]pyrazin-1-yl)-N-(pyridin-2-yl)benzamide], the figure is 10 to 100 nM; as for `Nc1ncnc2c1c(-c1ccc(C(=O)Nc3cc(C(F)(F)F)ccn3)cc1)nn2[C@@H]1CCCN(C(=O)C(Cl)(Cl)Cl)C1` [Example 265, (R)-4-(4-amino-1-(1-(2,2,2-trichloroacetyl)piperidin-3-yl)-1H-pyrazolo[3,4-d]pyrimidin-3-yl)-N-(4-(trifluoromethyl)pyridin-2-yl)benzamide], 10 to 100 nM; as for `Cc1noc([C@H]2C[C@@H]2C(=O)N2CCC[C@@H](c3nc(-c4ccc(C(=O)Nc5cc(C(F)(F)F)ccn5)cc4)c4c(N)nccn34)C2)n1` [Example 82, 4-(8-amino-3-((R)-1-((1S,2S)-2-(3-methyl-1,2,4-oxadiazol-5-yl)cyclopropanecarbonyl)piperidin-3-yl)imidazo[1,5-a]pyrazin-1-yl)-N-(4-(trifluoromethyl)pyridin-2-yl)benzamide], below 10 nM. As for `CS(=O)(=O)CCC(=O)N1CCC[C@@H](c2nc(-c3ccc(C(=O)Nc4cc(C(F)(F)F)ccn4)cc3)c3c(N)nccn23)C1` [Example 77, (R)-4-(8-amino-3-(1-(3-(methylsulfonyl)propanoyl)piperidin-3-yl)imidazo[1,5-a]pyrazin-1-yl)-N-(4-(trifluoromethyl)pyridin-2-yl)benzamide], the EC50 is below 10 nM. On the same count and under the same terms, as for `Cc1ccc(NC(=O)C(=O)N2CCC[C@@H](c3nc(-c4ccc(C(=O)Nc5cc(C6CC6)ccn5)cc4)c4c(N)nccn34)C2)cc1C` [Example 113, (R)-4-(8-amino-3-(1-(2-(3,4-dimethylphenylamino)-2-oxoacetyl)piperidin-3 yl)imidazo[1,5-a]pyrazin-1-yl)-N-(4-cyclopropylpyridin-2-yl)benzamide], the figure is 10 to 100 nM. `CS(=O)(=O)N1CC(C(=O)N2CCC[C@@H](c3nc(-c4ccc(C(=O)Nc5cc(C(F)(F)F)ccn5)cc4)c4c(N)nccn34)C2)C1` [Example 73, (R)-4-(8-amino-3-(1-(1-(methylsulfonyl)azetidine-3-carbonyl)piperidin-3 yl)imidazo[1,5-a]pyrazin-1-yl)-N-(4-(trifluoromethyl)pyridin-2-yl)benzamide] had an EC50 below 10 nM. In turn, `Nc1nccn2c([C@@H]3CCCN(C(=O)C4CC(F)(F)C4)C3)nc(-c3ccc(C(=O)Nc4cc(C(F)(F)F)ccn4)cc3)c12` [Example 83, (R)-4-(8-amino-3-(1-(3,3-difluorocyclobutanecarbonyl)piperidin-3-yl)imidazo[1,5-a]pyrazin-1-yl)-N-(4-(trifluoromethyl)pyridin-2-yl)benzamide] had an EC50 below 10 nM. Regarding `COCCC(=O)N1CCC[C@@H](c2nc(-c3ccc(C(=O)Nc4cc(C5CC5)ccn4)cc3)c3c(N)nccn23)C1` [Example 61, (R)-4-(8-amino-3-(1-(3-methoxypropanoyl)piperidin-3 yl)imidazo[1,5-a]pyrazin-1-yl)-N-(4-cyclopropylpyridin-2-yl)benzamide], the half-maximal effective concentration (EC50) is below 10 nM.

In turn, `C=CC1(C(=O)N2CCC[C@@H](c3nc(-c4ccc(C(=O)Nc5cc(C(F)(F)F)ccn5)cc4)c4c(N)nccn34)C2)COC1` [Example 91, (R)-4-(8-amino-3-(1-(3-vinyloxetane-3-carbonyl)piperidin-3-yl)imidazo[1,5-a]pyrazin-1-yl)-N-(4-(trifluoromethyl)pyridin-2-yl)benzamide] yielded an EC50 below 10 nM. Still for that read-out and setting: as for `Nc1nccn2c([C@@H]3CCCN(C(=O)[C@H]4CC(=O)N4)C3)nc(-c3ccc(C(=O)Nc4cc(C(F)(F)F)ccn4)cc3)c12` [Example 87, 4-(8-amino-3-((R)-1-((R)-4-oxoazetidine-2-carbonyl)piperidin-3-yl)imidazo[1,5-a]pyrazin-1-yl)-N-(4-(trifluoromethyl)pyridin-2-yl)benzamide], the figure is below 10 nM.

The assay is the same for the next values; noted with them: read-out: EC50 Btk activity values - Assay Method A; IMAP-FP, 60 min pre-incubation, 5 μM ATP; class 100-1000 is given as ≧100 nM-<1 μM.
Turning to `CC1(C(=O)N2CCC[C@@H](c3nc(-c4ccc(C(=O)Nc5cc(C(F)(F)F)ccn5)cc4)c4c(N)ncnn34)C2)COC1` [Example 261, (R)-4-(4-amino-7-(1-(3-methyloxetane-3-carbonyl)piperidin-3-yl)imidazo[1,5-f][1,2,4]triazin-5-yl)-N-(4-(trifluoromethyl)pyridin-2-yl)benzamide], the half-maximal effective concentration (EC50) was below 10 nM. The same measure, in the same setting: as for `Cc1ccnc(NC(=O)c2ccc(-c3nc([C@H]4CC[C@H](O)CC4)n4ccnc(N)c34)cc2)c1` [Example 5, 4-(8-amino-3-((trans)-4-hydroxycyclohexyl)imidazo[1,5-a]pyrazin-1-yl)-N-(4-methylpyridin-2-yl)benzamide], the figure is below 10 nM. Turning to `C[C@H]1CC[C@@H](c2nc(-c3ccc(C(=O)Nc4ccccn4)cc3)c3c(N)nccn23)CN1C(=O)C1CC1` (relative stereo) [Example 192, 4-(8-amino-3-((cis)-1-(cyclopropanecarbonyl)-6-methylpiperidin-3-yl)imidazo[1,5-a]pyrazin-1-yl)-N-(pyridin-2-yl)benzamide, TFA salt], the EC50 is below 10 nM. For the compound `Nc1ncc(/C=C/c2ccccc2)n2c(C3CCOCC3)nc(-c3ccc(C(=O)Nc4ccccn4)cc3)c12` [Example 313, (E)-4-(8-amino-5-styryl-3-(tetrahydro-2H-pyran-4-yl)imidazo[1,5-a]pyrazin-1-yl)-N-(pyridin-2-yl)benzamide], the EC50 was below 10 nM. Same read-out and setting: as for `Nc1nccn2c([C@@H]3CCC[C@@H](NC(=O)C4CCCO4)C3)nc(-c3ccc(C(=O)Nc4cc(C(F)(F)F)ccn4)cc3)c12` (relative stereo) [Example 169, N-((trans)-3-(8-amino-1-(4-(4-(trifluoromethyl)pyridin-2-ylcarbamoyl)phenyl)imidazo [1,5-a]pyrazin-3-yl)cyclohexyl)tetrahydrofuran-2-carboxamide], the figure is below 10 nM. In the case of `CCNC(=O)N1CCC[C@@H](n2nc(-c3ccc(C(=O)Nc4cc(C(F)(F)F)ccn4)cc3)c3c(N)ncnc32)C1` [Example 268, (R)-3-(4-amino-3-(4-(4-(trifluoromethyl)pyridin-2-ylcarbamoyl)phenyl)-1H-pyrazolo[3,4-d]pyrimidin-1-yl)-N-ethylpiperidine-1-carboxamide], the EC50 is below 10 nM.

On to `CCOCCC(=O)N1C[C@H](c2nc(-c3ccc(C(=O)Nc4ccccn4)cc3)c3c(N)nccn23)CC[C@@H]1C` (relative stereo) [Example 206, 4-(8-amino-3-((cis)-1-(3-ethoxypropanoyl)-6-methylpiperidin-3-yl)imidazo[1,5-a]pyrazin-1-yl)-N-(pyridin-2-yl)benzamide, TFA salt], for which the EC50 is below 10 nM. As for `Nc1nccn2c(C3CN(C(=O)C4CC4)CCO3)nc(-c3ccc(C(=O)Nc4cc(C(F)(F)F)ccn4)cc3)c12` (stereo not drawn) [Example 176, 4-(8-amino-3-(4-(cyclopropanecarbonyl)morpholin-2-yl)imidazo[1,5-a]pyrazin-1-yl)-N-(4-(trifluoromethyl)pyridin-2-yl)benzamide], the EC50 was below 10 nM.

For `CC1CCc2nc(NC(=O)c3ccc(-c4nc([C@H]5CC[C@H](O)CC5)n5ccnc(N)c45)cc3)sc2C1` (stereo partly drawn) [Example 14, 4-(8-amino-3-((trans)-4-hydroxycyclohexyl)imidazo[1,5-a]pyrazin-1-yl)-N-(6-methyl-4,5,6,7-tetrahydrobenzo[d]thiazol-2-yl)benzamide], the EC50 was below 10 nM.

Turning to `CCCc1ccnc(NC(=O)c2ccc(-c3nc(C4CCOCC4)n4c(Cl)cnc(N)c34)cc2)c1` [Example 298, 4-(8-amino-5-chloro-3-(tetrahydro-2H-pyran-4-yl)imidazo[1,5-a]pyrazin-1-yl)-N-(4-propylpyridin-2-yl)benzamide], the EC50 is below 10 nM.
